Where “and” joins values, the source holds several entries; their conditions need not be identical. Identical values can stand only once.
Experiment: xn = mol fraction of the nth substance listed

CCOC(C)(C)C + COCCO
viscosity [mPa·s], 101 kPa
Details	293.15 K	298.15 K	303.15 K
x1 = 0.0501	1.598	1.452	1.327
x1 = 0.1	1.493	1.361	1.246
x1 = 0.1508	1.386	1.267	1.164
x1 = 0.2	1.291	1.183	1.089
x1 = 0.2512	1.198	1.1	1.015
x1 = 0.299	1.118	1.029	0.951
x1 = 0.3489	1.041	0.961	0.89
x1 = 0.4	0.971	0.898	0.834
x1 = 0.4503	0.909	0.842	0.784
x1 = 0.499	0.854	0.793	0.74
x1 = 0.55	0.803	0.748	0.7
x1 = 0.61	0.75	0.7	0.657
x1 = 0.6599	0.711	0.665	0.625
x1 = 0.7	0.682	0.639	0.602
x1 = 0.7511	0.649	0.61	0.575
x1 = 0.8	0.621	0.584	0.552
x1 = 0.8489	0.595	0.561	0.532
x1 = 0.9	0.571	0.54	0.512
x1 = 0.949	0.55	0.521	0.495

CCOC(=O)c1ccccc1 + CCCCCCC
viscosity [mPa·s]
Details	298.15 K	303.15 K	308.15 K	313.15 K	318.15 K
101 kPa, x1 = 0.1042	–	0.417	0.397	0.37	–
101 kPa, x1 = 0.2052	–	0.475	0.447	0.42	–
101 kPa, x1 = 0.3085	–	0.55	0.514	0.482	–
101 kPa, x1 = 0.4071	–	0.63	0.591	0.55	–
101 kPa, x1 = 0.5078	–	0.738	0.687	0.64	–
101 kPa, x1 = 0.6071	–	0.865	0.802	0.745	–
101 kPa, x1 = 0.7074	–	1.03	0.95	0.875	–
101 kPa, x1 = 0.8047	–	1.217	1.12	1.03	–
101 kPa, x1 = 0.9038	–	1.466	1.34	1.23	–
101.3 kPa, x1 = 0.098	0.428	–	0.387	–	0.351
101.3 kPa, x1 = 0.1952	0.484	–	0.433	–	0.393
101.3 kPa, x1 = 0.2948	0.55	–	0.492	–	0.44
101.3 kPa, x1 = 0.3941	0.638	–	0.564	–	0.498
101.3 kPa, x1 = 0.4961	0.747	–	0.655	–	0.571
101.3 kPa, x1 = 0.5985	0.882	–	0.767	–	0.662
101.3 kPa, x1 = 0.6974	1.047	–	0.912	–	0.771
101.3 kPa, x1 = 0.7984	1.263	–	1.082	–	0.913
101.3 kPa, x1 = 0.8972	1.539	–	1.286	–	1.08

CCC(C)CO (stereo not drawn) + O
298.15 K, 101 kPa
Details	viscosity [mPa·s]
x2 = 0.0025	4.797
x2 = 0.0548	4.447
x2 = 0.0985	4.284
x2 = 0.1421	4.163
x2 = 0.1741	4.101
x2 = 0.1943	4.07
x2 = 0.2403	4.025
x2 = 0.2657	4.011
x2 = 0.2859	4.01
x2 = 0.2923	4.005
x2 = 0.3149	4.005

O=C(Nc1ccccc1)c1ccccc1 + c1ccncc1
298.15 K, 101 kPa
Details	viscosity [mPa·s]
x1 = 0.0224	1.027
x1 = 0.0382	1.121
x1 = 0.05536	1.252

CC(C)CC1CCCCC1 + CCCCCCCCCCCC
viscosity [mPa·s], 102 kPa
Details	x1 = 0.1	x1 = 0.2011	x1 = 0.3007	x1 = 0.4005	x1 = 0.4977	x1 = 0.5997	x1 = 0.6989	x1 = 0.7996
293.15 K	1.46	1.42	1.39	1.35	1.32	1.29	1.25	1.22
303.15 K	1.23	1.2	1.17	1.14	1.12	1.09	1.07	1.04
313.15 K	1.05	1.02	1	0.982	0.965	0.942	0.922	0.903
323.15 K	0.902	0.889	0.874	0.856	0.842	0.824	0.809	0.793

[Li+].[O-][Cl+3]([O-])([O-])[O-] + O=S1(=O)CCCC1
101 kPa, x1 = 0.1
Details	viscosity
303.15 K	28.58 mPa·s and 28.57 mPa·s
308.15 K	24.56 mPa·s
313.15 K	20.83 mPa·s
318.15 K	18.28 mPa·s
323.15 K	16.02 mPa·s

CC1CCCCC1 + CCCCCCC
viscosity [mPa·s]
Details	293.15 K	298.15 K	303.15 K	308.15 K	323.15 K
100 kPa, x1 = 0.125	–	–	0.389	–	0.317
100 kPa, x1 = 0.25	–	–	0.411	–	0.335
100 kPa, x1 = 0.375	–	–	0.436	–	0.354
100 kPa, x1 = 0.5	–	–	0.465	–	0.375
100 kPa, x1 = 0.625	–	–	0.498	–	0.4
100 kPa, x1 = 0.75	–	–	0.538	–	0.43
100 kPa, x1 = 0.875	–	–	0.585	–	0.466
101 kPa, x1 = 0.0405	0.4128	0.3963	0.368	–	–
101 kPa, x1 = 0.1021	–	0.411	0.391	0.371	–
101 kPa, x1 = 0.1996	0.4451	0.4235	0.4003	–	–
101 kPa, x1 = 0.2033	–	0.432	0.41	0.389	–
101 kPa, x1 = 0.281	0.4637	0.4402	0.4162	–	–
101 kPa, x1 = 0.3044	–	0.451	0.427	0.403	–
101 kPa, x1 = 0.3593	0.4826	0.4568	0.4317	–	–
101 kPa, x1 = 0.4036	–	0.473	0.449	0.422	–
101 kPa, x1 = 0.4393	0.5042	0.474	0.4476	–	–
101 kPa, x1 = 0.5029	–	0.497	0.47	0.443	–
101 kPa, x1 = 0.6003	0.5514	0.5153	0.4887	–	–
101 kPa, x1 = 0.6033	–	0.526	0.496	0.467	–
101 kPa, x1 = 0.6793	0.5802	0.5399	0.512	–	–
101 kPa, x1 = 0.7038	–	0.556	0.524	0.492	–
101 kPa, x1 = 0.76	0.6141	0.571	0.5395	–	–
101 kPa, x1 = 0.8022	–	0.591	0.557	0.522	–
101 kPa, x1 = 0.84	0.6483	0.6042	0.5687	–	–
101 kPa, x1 = 0.9006	–	0.625	0.589	0.553	–
101 kPa, x1 = 0.9074	0.6821	0.6347	0.5964	–	–
